Measurements as given in patent US20120204273A1, “COMPOSITIONS RELATING TO A PHOSPHOPROTEIN AND METHODS OF USE” (SANFORD-BURNHAM MEDICAL RESEARCH INSTITUTE, priority 2010, published 2012).

System: HA-CDP138
Test: Phosphorylation of HA-CDP138 in CHO-T cells (anti-HA IP, PAS antibody blot)
Assay type: cell-based, hamster
Settings: insulin 100 nM, 15 min
From the text: FIG. 1, panels A-D, show an uncharacterized C2 domain-containing protein encoded by 5730419I09Rik is a novel phosphoprotein identified in insulin-stimulated adipocytes using a SILAC phosphoproteomic approach. (A): Schematic procedure for SILAC quantitative proteomics used for identification and quantification of peptide from CDP138 (5730419I09Rik). Top right panel: quantification of CDP138 peptide from different groups of adipocytes. Lower right panel: Schematic diagram of CDP138 and the identified phosphorylation sites. (B): Confirmation of CDP138 phosphorylation induced by insulin. CHO-T cells expressing HA-CDP138, or differentiated 3T3-L1 adipocytes were treated with or without insulin (100 nM) for 15 min. A third sample was pretreated with wortmannin (100 nM, WM) for 20 min or LY294002 (50 μM, LY) for 1 hour before insulin stimulation. […] CDP138, pS473-Akt and Akt protein were also detected with total cell lysates. […] Whole cell extracts (25 μg total protein) from different tissues (lean mice, left panel) and epididymal fat pads from both ob/ob and lean mice (24 weeks old, Jackson Lab, Bar Harbor, Me.; middle panel) were analyzed by immunoblotting with antibodies against CDP138, IRS-1, Akt, Erk1/2, and β-actin. Right panel: quantification of CDP138 protein levels in fat tissues from lean and obese mice. […]

insulin
phosphorylation of HA-tagged CDP138 detected with PAS antibodies: stimulates phosphorylation
